Experimental data reported in patent US11123272B2, “Cosmetic blends” (Symrise AG, priority 2016, dated 2021).

Biological target: T1, human TREK-1 receptor (Homo sapiens, UniProt O95069)
T1 construct: expressed in transfected cells
T1 sequence (O95069 1-426): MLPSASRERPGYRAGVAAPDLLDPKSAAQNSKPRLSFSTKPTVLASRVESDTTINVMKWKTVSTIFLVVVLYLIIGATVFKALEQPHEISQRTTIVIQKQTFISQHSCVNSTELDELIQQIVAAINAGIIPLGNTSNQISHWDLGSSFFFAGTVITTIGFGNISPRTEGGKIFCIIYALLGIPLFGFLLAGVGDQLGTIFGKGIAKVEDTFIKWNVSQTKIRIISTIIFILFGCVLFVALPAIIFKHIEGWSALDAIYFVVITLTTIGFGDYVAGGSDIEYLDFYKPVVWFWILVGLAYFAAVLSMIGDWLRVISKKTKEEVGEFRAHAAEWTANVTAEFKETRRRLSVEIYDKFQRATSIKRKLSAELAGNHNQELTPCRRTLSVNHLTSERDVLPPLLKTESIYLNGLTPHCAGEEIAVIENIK
Assay: TREK receptor screening: TREK-1 mediated currents by manual patch clamp in transfected frog oocytes
Format: cell-based
Settings: at 1 mMol; None = 1.000
Source text: The human TREK-1 receptor is a temperature sensitive, mechano-gated potassium channels, present in human skin and neuronal cells. It is known to be involved in the signaling of temperature sensation. Here it cooperates with other ion channels in the relevant cell types.
To screen for TREK-1 receptor channel blockers, frog oocyte were transfected to transiently overexpress the human TREK-1 receptor. A substance database was screened on the cells. Read out was TREK-1medited currents, detected by manual patch clamp.

Compound	Blockade of TREK-1 receptor, F.I.
CCCCCCCCC(O)CO (centres unmarked) [1,2-Decandiol]	0.773
CCCCCCCCCCC(O)CO (centres unmarked) [1,2-Dodecandiol]	0.733
CCCCC(O)CO (centres unmarked) [1,2-Hexandiol]	0.942
CNCCC(Oc1ccc(C(F)(F)F)cc1)c1ccccc1 (centres unmarked) [Fluoxetine, reference compound]	0.679
CCCCCCC(O)CO (centres unmarked) [1,2-Octandiol]	0.855
